The subject of series [1] is EMT6 mouse mammary tumor cells. The conditions noted are these: 48 h.
Another series in a line: in vitro. As to conditions: mouse.
In series [2] the target is T1, Human placental thioredoxin reductase (Homo sapiens, UniProt Q16881).
T1 sequence (Q16881 1-499 isoform Q16881-5): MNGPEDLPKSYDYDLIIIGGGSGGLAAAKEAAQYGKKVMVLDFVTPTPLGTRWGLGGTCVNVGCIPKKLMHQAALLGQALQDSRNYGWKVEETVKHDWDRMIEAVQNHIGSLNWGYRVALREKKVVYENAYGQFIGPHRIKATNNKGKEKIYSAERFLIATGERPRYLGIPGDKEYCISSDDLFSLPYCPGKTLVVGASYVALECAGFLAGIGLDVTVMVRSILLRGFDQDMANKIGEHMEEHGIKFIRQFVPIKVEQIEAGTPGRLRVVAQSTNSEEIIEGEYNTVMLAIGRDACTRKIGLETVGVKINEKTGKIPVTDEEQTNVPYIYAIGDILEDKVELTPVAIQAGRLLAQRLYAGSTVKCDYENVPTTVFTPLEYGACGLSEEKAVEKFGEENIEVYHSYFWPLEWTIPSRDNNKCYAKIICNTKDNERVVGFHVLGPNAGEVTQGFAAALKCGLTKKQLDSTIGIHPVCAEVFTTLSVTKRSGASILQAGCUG
Description: NADPH oxidation by thioredoxin reductase with the disulfide as substrate, or with thioredoxin and insulin as final electron acceptor and the disulfide as inhibitor. Format: biochemical. As to conditions: for Type: behaviour towards thioredoxin reductase: substrate, inhibitor or non-reactive. How it is done: The thioredoxin was stored at −20° C. with 5 mM dithiothreitol which was removed before use with a desalting column (PD10, Pharmacia, Uppsala, Sweden).
Asymmetrical 2-imidazolyl disulfides which were used as a basis for further development and identified below in Table 1. In Table I, NADPH oxidation by thioredoxin reductase was measured spectrophotometrically as described with either the disulfide as the electron acceptor (substrate) or with thioredoxin and insulin as the final electron acceptor and the disulfide as inhibitors. The reactions were initiated by the addition of NADPH. Km and Ki values were calculated from Lineweaver-Burk plots of the data.
The compounds of Table 1 were synthesized by a method described previously and recrystallized prior to use. Stock solutions of the disulfides were prepared at 10 mM in ethanol and diluted in aqueous media just prior to use. N-ethylmaleimide (NEM), diamide, and DTT were obtained from Sigma Chemical Co. (St. Louis, Mo.). All other chemicals used were of reagent grade. […]

In series [3] the test system is MCF-7 human breast cancer cells. As to the kind of experiment: Thioredoxin and serum dependent growth of MCF-7 cells. The series is classed as cell-based. The conditions noted are these: 48 hr. As to the method:
MCF-7 human breast cancer cells were obtained from the American Tissue Type Collection (Rockville, Md.). Cultures were maintained in Dulbecco's Modified Eagles' medium (DMEM) containing 10% fetal bovine serum (fbs) at 37° C. and 6% CO2, and passaged at 75% confluence using 0.025% trypsin. The effect of the disulfides on cell proliferation was measured as previously described and incorporated herein by reference. Briefly, 10^5 cells were plated in a 35 mm culture dish in the above medium and, after attachment for 24 hr, their growth was arrested by changing to DMEM with 0.5% fbs for 48 hr. The medium was then replaced with DMEM containing 10% fbs or 1 μM thioredoxin, with or without the disulfides. The cell number was measured 2 days later following detachment with 0.025% trypsin using a hemocytometer.
The effects of the disulfides on the growth of human MCF-7 breast cancer cells is shown graphically in FIG. 1. […] The cells were growth arrested in medium with 0.5% serum for 48 hr at which time there were 0.2×10^6 cells. DMEM with 1 mM thioredoxin (open symbols) or 10% serum (filled symbols) was added and the increase in cell number over a 48 hr period was measured in the presence of various concentrations of the disulfides. Values are means±SEM. n=6.

Another series has as its target T2, thioredoxin (Homo sapiens, UniProt P10599).
T2 construct: made in house; host or cells: E. coli
T2 sequence (P10599 1-105): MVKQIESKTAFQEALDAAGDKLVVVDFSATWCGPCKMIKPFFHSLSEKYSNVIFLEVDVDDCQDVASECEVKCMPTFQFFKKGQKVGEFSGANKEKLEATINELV
Description: Direct reaction between thioredoxin and disulfides, release of 2-mercaptoimidazole at 252 nm. Format: biochemical. As to conditions: for initial rate for reaction between thioredoxin and disulfide: thioredoxin 2 μM, disulfide 200 μM, pH 7.4, room temperature. As to the method:
The effects of the assymetric disulfides of Table I on the reduction of thioredoxin and C73S by thioredoxin reductase was measured spectrophotometrically by following the reduction of NADPH at 339 nm. […] In some studies the disulfides at 3.5 μM were preincubated for up to 24 hr at room temperature in air with 0.7 μM thioredoxin or C73S in 100 μM HEPES buffer, pH 7.6, and 5 mM EDTA, before measuring the reduction of the thioredoxin or C73S by thioredoxin reductase with 1 mg/ml bovine insulin as the final electron acceptor. The ability of the disulfides to act as substrates for glutathione reductase was measured by following the reduction of NADPH using an incubation mixture containing 0.15 μg/ml glutathione reductase, 140 μM NADPH, 100 mM HEPES buffer, pH 7.6, 5 mM EDTA and the disulfides at 500 μM. The ability of the disulfides to act as inhibitors of glutathione reductase was measured using oxidized glutathione, 50 μM, as the final electron acceptor. In both cases the reaction was initiated by the addition of NADPH. Thioredoxin or C32S/C35S, 2 μM, in 0.1 M sodium phosphate buffer, pH 7.4, was reacted with the disulfides at a concentration of 200 μM at room temperature. This direct reaction between thioredoxin and the disulfides was followed spectrophotometrically as the increase in absorbance at 252 nm due to release of 2-mercaptoimidazole. Initial reaction rates were measured in triplicate.
Due to the fact that the disulfides inhibited thioredoxin-dependent cell growth at concentrations below those required to inhibit thioredoxin reductase, a direct effect of the disulfides on thioredoxin was looked for. The initial reaction between the disulfides and thioredoxin was measured spectrophotometrically (FIGS. 2A and 2B). […] This is the order of reactivity which be predicted from the steric and electronic nature of the disulfides thioalkylating groups.

For series [4], the system named is MCF-7 breast cancer cells in scid mice. As to the kind of experiment: Activity against MCF-7 breast cancer cells in scid mice. As to conditions: for T/C %: tumor volume treated versus control at day 28; for tumor inhibition: MCF-7 tumor system. Format: in vivo. An excerpt:
This is shown below in Table II.

The next series addresses T3, TR/Trx (Homo sapiens, UniProt Q16881).
T3 sequence (Q16881 1-499 isoform Q16881-5): T1 sequence (Q16881 1-499 isoform Q16881-5)
As to the kind of experiment: Thioredoxin dependent reduction of insulin by human thioredoxin reductase and NADPH (IC50 TR/Trx, 96 well). The series is classed as biochemical. From the text: When referring to the particular system being analyzed IC50 is typically followed by an abbreviation referring to that system (i.e., IC50 TR/Trx for the above described thioredoxin redox system which is comprised of thioredoxin reductase and thioredoxin).
A second plate was used for the assessment of biological activity or as a biological screen. Aliquots of disulfides dissolved in DMSO, were be transferred into 96 well plates. The assay to assess their ability to inhibit thioredoxin reductase measures the thioredoxin dependent reduction of insulin by human thioredoxin reductase and NADPH. The effects of the disulfides on the reduction of Trx by TR were measured spectrophotometrically by following the reduction of NADPH at 339 nm with insulin as the final electron acceptor in a buffered mixture of TR, Trx, NADPH and insulin.

For the next series, the system named is HL60 cells. As to the kind of experiment: Induction of apoptosis in HL60 cells. Format: cell-based, human. The conditions noted are these: within 8 h of exposure, same concentration.
For the next series, the system named is human primary tumors. As to the kind of experiment: Growth of human primary tumors in soft agarose. Format: cell-based.
Series [5] deals with thioredoxin transfected MCF-7 cells. As to the kind of experiment: Apoptosis in MCF-7 cells transfected with human thioredoxin cDNA. The conditions noted are these: 30 μM, apoptosis measured 48 h later.
Series [6] has as its system MCF-7 breast cancer cells. The conditions noted are these: read-out: EC50 for growth stimulation; cited from earlier work.
[7] abbreviates: MCF7, in the presence of 1 μM thioredoxin, read-out: IC50 thioredoxin dependent proliferation.
The mark [8] stands for this setting: MCF7, with 10% fetal bovine serum, read-out: IC50 serum dependent growth.

Broadly, the Km is the concentration of substrate that gives half-maximal velocity. Usually Ki stands for the equilibrium dissociation constant of an inhibitor or competing ligand from its target. Low values mean higher affinity, high ones lower affinity. As usually defined, the EC50 is the concentration at which the effect is half-maximal.

Where “and” joins values, the source holds several entries; their conditions need not be identical. Equal values may be shown once. Entries after “also recorded” stand apart in the source; their conditions may differ. Read-outs that look alike come from different tables or passages of the source. Marks after values point to notes of the source that are not given here.

Consider `CC(C)SSCc1ccccc1` [Compound E-19], for which, in series [1], the IC50 was determined as 25 µM. The molecule further returned an IC50 at 48 h in the series “in vitro” of 42 µM.

Turning to `CCCCSSc1ncc[nH]1` [III-2, n-butyl 2-imidazolyl disulfide], the Type result in series [2] is “substrate”. Also, the Km in series [2] (disulfide as substrate for reduction by thioredoxin reductase, Lineweaver-Burk) is 43 µM and 43.1 µM. Further, the IC50 was 0.2 µM in series [3] (setting [7]); 35 µM in [3] (setting [8]); 117 µM at TR/Trx (Table 4, read-out: Disulfide inhibition of TR/Trx (IC50 TR/Trx) (converted)). For the same molecule, the “initial rate for reaction between thioredoxin and disulfide” value (from here on “initial rate”) at thioredoxin was 7.3e-07 M/s. The values for the Toxicity dead/injected in [4] (6 mg/kg/day i.p. for 14 days), in series [4] (12 mg/kg/day i.p. for 14 days) and in series [4] (18 mg/kg/day i.p. for 14 days) were 0/8, 0/8 and 1/8, respectively. The T/C % in series [4] (6 mg/kg/day i.p. for 14 days) is on record as 48.9^c %; in series [4] (12 mg/kg/day i.p. for 14 days), 56.6^c %; in series [4] (18 mg/kg/day i.p. for 14 days), 100.2%. The “apoptosis of HL60 cells” value in the series with HL60 cells is “stimulated to apoptose”. The molecule also had an IC50 at 48 h in “in vitro” of 12 µM.

For the molecule `c1ccc(CSSc2ncc[nH]2)cc1` [DLK-36, benzyl 2-imidazolyl disulfide], in series [2], the Type entry is reported as “competitive inhibitors; also recorded: inhibitor”. In series [2] (competitive inhibitors of the reduction of thioredoxin by thioredoxin reductase), this molecule gave a Ki of 31 µM. The “initial rate” value on thioredoxin came to 1.3e-06 M/s. The Toxicity dead/injected in series [4] (25 mg/kg/day i.p. for 14 days) was 1/8; in series [4] (40 mg/kg/day i.p. for 14 days) it was 0/6. Further, the T/C % in [4] (25 mg/kg/day i.p. for 14 days) is 100.7%; in series [4] (40 mg/kg/day i.p. for 14 days), 23.7^c %. For the same molecule, the tumor inhibition in series [4] is 65%. The molecule also yielded an IC50 at 48 h in “in vitro” of 22 µM.

Take `CCC(C)SSc1ncc[nH]1` (stereo not drawn) [IV-2, 1-methylpropyl 2-imidazolyl disulfide]: the Type result in [2] was “competitive inhibitors; also recorded: inhibitor”. Further, the IC50 in series [3] (setting [7]) was 1.2 µM; in [3] (setting [8]), 3.2 µM. In addition, at thioredoxin, the “initial rate” value was 2.8e-07 M/s. Besides, the results for the T/C % in [4] (5 mg/kg/day i.p. for 14 days), in [4] (10 mg/kg/day i.p. for 14 days) and in series [4] (15 mg/kg/day i.p. for 14 days) were 56.7%, 45.9^c % and 2.3^c %, respectively. In series [4], this molecule showed a tumor inhibition of 98%. For the same molecule, in the series on HL60 cells, the “apoptosis of HL60 cells” value is “stimulated to apoptose”. For the same molecule, the “growth of human primary tumors in soft agarose” value in the series on human primary tumors is “inhibited”. This molecule registered an IC50 at 48 h in the series “in vitro” of 19 µM. Further, in series [5], the “apoptosis induced in thioredoxin transfected cells” value is “became resistant to apoptosis”.

Turning to `CC(C)(C)SSc1ncc[nH]1` [IX-2, t-butyl 2-imidazolyl disulfide], the Type result in series [2] was “non-reactive”. For the same molecule, the “rate of thiol/disulfide exchange reaction with thioredoxin relative to III-2” value on thioredoxin is on record as “three logs slower”. Further, the “initial rate” value at thioredoxin (unit not given, in M/s) is recorded as 3.0×10^−9. The “apoptosis of HL60 cells” value with HL60 cells is “does not cause apoptosis”.

Turning to `CCC(C)SSc1ncnc2[nH]cnc12` (stereo not drawn) [Compound F-7], the IC50 on TR/Trx (Table 3, read-out: IC50 TR/Trx (converted)) is 95.7 µM; in series [1], above 180 µM. The IC50 at 48 h in “in vitro” was above 180 µM.

B1: thioredoxin: low molecular weight redox protein; human recombinant thioredoxin stimulates proliferation of cancer cells (protein, UniProt P10599 2-105, looked up)
Thioredoxin: VKQIESKTAFQEALDAAGDKLVVVDFSATWCGPCKMIKPFFHSLSEKYSNVIFLEVDVDDCQDVASECEVKCMPTFQFFKKGQKVGEFSGANKEKLEATINELV
As to B1, the EC50 in series [6] was 0.35 µM.

The record behind these values is patent US6552060B1, “Asymmetric disulfides and methods of using same” (Prolx Pharmaceuticals, Inc., priority 1997, dated 2003).
